Data on one molecule can be found in BindingDB's records for patent US10246444 (Sabila Biosciences, 2019).

This experiment addresses Epidermal growth factor receptor [T790M,L858R] (Homo sapiens, UniProt P00533, L858R/T790M). In words: Kinase assay.

Sequence of Epidermal growth factor receptor [T790M,L858R] (P00533 25-1210 T790M/L858R limits assumed): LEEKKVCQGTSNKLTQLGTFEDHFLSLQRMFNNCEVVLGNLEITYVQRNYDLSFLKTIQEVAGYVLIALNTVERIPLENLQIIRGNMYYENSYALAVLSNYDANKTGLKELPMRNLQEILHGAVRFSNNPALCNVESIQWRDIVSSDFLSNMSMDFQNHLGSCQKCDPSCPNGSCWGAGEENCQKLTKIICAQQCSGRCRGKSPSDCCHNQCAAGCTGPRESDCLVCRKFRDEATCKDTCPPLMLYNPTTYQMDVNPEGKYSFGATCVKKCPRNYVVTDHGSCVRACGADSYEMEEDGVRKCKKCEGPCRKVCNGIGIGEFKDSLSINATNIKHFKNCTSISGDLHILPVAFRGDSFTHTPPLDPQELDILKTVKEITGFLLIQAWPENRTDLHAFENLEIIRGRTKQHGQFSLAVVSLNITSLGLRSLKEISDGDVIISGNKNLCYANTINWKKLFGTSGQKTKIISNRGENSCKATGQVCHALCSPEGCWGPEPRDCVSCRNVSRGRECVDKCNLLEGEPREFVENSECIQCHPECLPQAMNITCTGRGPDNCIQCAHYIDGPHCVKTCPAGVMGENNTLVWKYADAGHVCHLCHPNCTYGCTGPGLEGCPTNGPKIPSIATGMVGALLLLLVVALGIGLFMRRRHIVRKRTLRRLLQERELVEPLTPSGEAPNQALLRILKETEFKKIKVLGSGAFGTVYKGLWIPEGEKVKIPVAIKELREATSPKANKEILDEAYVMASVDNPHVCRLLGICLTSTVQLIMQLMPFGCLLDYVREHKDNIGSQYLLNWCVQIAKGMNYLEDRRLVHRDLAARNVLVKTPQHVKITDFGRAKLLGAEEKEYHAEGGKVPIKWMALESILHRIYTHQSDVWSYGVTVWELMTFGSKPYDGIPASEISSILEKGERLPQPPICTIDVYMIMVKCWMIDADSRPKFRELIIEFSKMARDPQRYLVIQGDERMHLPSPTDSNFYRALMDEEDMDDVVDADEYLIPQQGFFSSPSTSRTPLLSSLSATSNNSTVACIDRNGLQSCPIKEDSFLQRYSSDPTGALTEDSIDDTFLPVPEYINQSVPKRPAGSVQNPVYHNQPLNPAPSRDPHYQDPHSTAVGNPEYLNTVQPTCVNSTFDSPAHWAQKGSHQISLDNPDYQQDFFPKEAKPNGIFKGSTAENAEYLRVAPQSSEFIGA
Description: The assay is performed by combining three components: DNA-tagged kinase; immobilized ligand; and a test compound. The ability of the test compound to compete with the immobilized ligand is measured via quantitative PCR of the DNA tag.For most assays, kinase-tagged T7 phage strains were prepared in an E. coli host derived from the BL21 strain. E. coli were grown to log-phase and infected with T7 phage and incubated with shaking at 32° C. until lysis. The lysates were centrifuged and filtered to remove cell debris. The remaining kinases were produced in HEK-293 cells and subsequently tagged with DNA for qPCR detection. […] The liganded beads were blocked with excess biotin and washed with blocking buffer (SeaBlock (Pierce), 1% BSA, 0.05% Tween 20, 1 mM DTT) to remove unbound ligand and to reduce nonspecific binding. […] All reactions were performed in polystyrene 96-well plates in a final volume of 0.135 ml. […] The kinase concentration in the eluates was measured by qPCR.

In turn, `CCOc1cc2ncc(C#N)c(Nc3ccc(OCc4cccc(F)c4)c(Cl)c3)c2cc1NC(=O)CC1CCSS1` (stereo unspecified) [US10246444, Example 40] registered a Kd of more than 10 µM.

Broadly, the Kd is the constant that tells how readily two partners part at equilibrium. Read a low Kd as a tighter complex.
